Columns and labels:
[1] = biological target: T1, TxA₂ Synthase (Rattus norvegicus, UniProt P49430); experiment: In vitro effect on TxB₂ synthesis in whole blood during clotting (RIA); assay type: cell-based; details: for times more potent than the reference compound ASA (TxA₂ synthesis in whole blood): ratio to ASA; for times more potent than the reference compound Dazoxiben (TxA₂ synthesis in whole blood): ratio to Dazoxiben
T1 construct: Blood was withdrawn from the abdominal aorta of the animals; from tissue; host or cells: whole blood of reduced renal mass (RRM) rats, allowed to clot 1 h at 37°C
T1 sequence (P49430 1-533): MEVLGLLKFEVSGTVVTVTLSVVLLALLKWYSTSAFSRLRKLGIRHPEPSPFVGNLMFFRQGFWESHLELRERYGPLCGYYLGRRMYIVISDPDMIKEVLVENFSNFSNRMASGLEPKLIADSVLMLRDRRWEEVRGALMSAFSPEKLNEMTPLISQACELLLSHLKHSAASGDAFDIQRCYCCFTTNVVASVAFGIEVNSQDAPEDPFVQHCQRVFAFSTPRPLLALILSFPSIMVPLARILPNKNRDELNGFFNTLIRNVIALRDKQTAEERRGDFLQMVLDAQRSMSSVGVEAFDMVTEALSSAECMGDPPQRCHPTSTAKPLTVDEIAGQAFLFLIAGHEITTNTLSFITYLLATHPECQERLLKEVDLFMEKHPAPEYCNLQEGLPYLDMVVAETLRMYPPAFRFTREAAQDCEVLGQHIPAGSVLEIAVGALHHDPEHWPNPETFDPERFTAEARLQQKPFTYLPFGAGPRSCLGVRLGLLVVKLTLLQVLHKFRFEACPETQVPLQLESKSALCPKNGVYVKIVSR
Method: (§1) Their ability to inhibit TxA₂ Synthase activity (as reflected by TxB₂ generated in whole blood during clotting or in isolated glomeruli) was tested in vitro and ex vivo in the rat.
(§2) The effect of the compounds on TxA₂ synthesis was evaluated in serum and in glomeruli isolated from kidney cortex of reduced renal mass rats (RRM). Ablation of >70% of renal mass in the rat results in hypertension, proteinuria and glomerular sclerosis of the remnant kidney. Rats with a remnant kidney have increased excretion of thromboxane in the urine when compared with normal rats [Purkerson et al.-Proc.Natl.Acad.Sci.USA 82, 193, 1985].
Blood was withdrawn from the abdominal aorta of the animals under light ether anesthesia.
Samples were then allowed to clot for 1 h at 37°C, centrifuged at 3000 rpm for 10 min, serum collected and stored at -20°C until assayed. TxB₂ levels were determined by RIA according to previously described procedures [Patrono et al.-Thromb.Res. 17, 3/4, 317, 1980] using highly specific antibody.

[2] = biological target: T1, TxA₂ Synthase; experiment: In vitro effect on TxB₂ synthesis in isolated glomeruli (RIA); assay type: cell-based
Method: as §1, §2
The isolation of glomeruli was performed as previously described [Patrignani et al., - J. Pharm. Exp. Ther. 228, 2, 472, 1984]
The isolated glomeruli of 4 rats were pooled, suspended in modified Krebs buffer (pH 7.3) and divided into portions of 1 ml each containing a concentration of the test compounds or of the reference compounds.
The TxA₂ synthesis was induced by incubating the glomeruli under shaking at 37°C for 1 h. At that time the incubation was stopped by centrifugation at +4°C, the supernatant collected and stored at -20°C until assayed by RIA.

[3] = biological target: T1, TxA₂ Synthase; experiment: Ex vivo inhibition of TxA₂ synthesis in serum after oral administration; details: 1 h, p.o., blood taken one hour after treatment, read-out: ED₅₀ inhibition of the synthesis of TxA₂ (ex vivo)
Method: as §1
The ex vivo experiments were performed as follows.
The compounds were orally administered to RRM rats by gavage at the dose of 2.5 mg/kg in 0.5% methocel. One hour after treatment rats were anaesthetised with ether, blood was withdrawn from the abdominal aorta and allowed to clot for 1 h at 37°C. Samples were then centrifuged, serum collected and stored at -20°C until assayed.

[4] = test system: chronically cannulated hypertensive rats (SHR); experiment: Antihypertensive activity, intra-arterial blood pressure and heart rate; assay type: in vivo
Method: The antihypertensive activity of the compounds of the invention was tested in chronically cannulated hypertensive rats (SHR).
For intra-arterial measurements of blood pressure (MBP) catheters (PE50 Clay Adams) were implanted in the right carotid artery under alothane anesthesia. Two days after surgery the animals were placed in a Ballman cage and the arterial catheter was connected to a stathman P23 Db pressure transducer and a Beckman multichannel R611 BP recorder for continuous monitoring of MBP and heart rate (HR).
Measurements were made predrug and 0.5, 1, 2, 4, 6 h after drug or vehicle (methocel 0.5% w/v).

[5] = Orientative acute oral toxicity; set-up: species or system Mice and rats; details: in vivo; single oral administration, assessed on the seventh day after treatment; read-out: orientative acute toxicity (LD₅₀)
Method: The toxicity of the compounds of the invention is negligible, so that they can be safely used in therapy. Mice and rats which had been deprived of food for nine hours were treated orally with single administrations of increasing doses of compounds of the invention, then housed and normally fed. For example the orientative acute toxicity (LD₅₀) of the compound FCE 24265, assessed on the seventh day after treatment, was higher than 800 mg/kg.

[6] = RRM rats whole blood, clotting 1 h at 37°C, read-out: In vitro effect on TxB₂ synthesis in RRM rats whole blood, IC₅₀

CC(=O)Oc1ccccc1C(=O)O [ASA, Acetylsalicylic acid, reference compound]
IC50 [1]: 42000 nM
IC50 [2]: 140000 nM

CCOC(=O)C1=C(C)NC(C)=C(C(=O)OCC)C1c1cccc(-n2ccnc2)c1 [FCE 24265, 1,4-dihydro-2,6-dimethyl-4-[3-(1H-imidazol-1-yl)phenyl]-3,5-pyridinedicarboxylic acid, diethyl ester]
IC50 [1, 6]: 170 nM
times more potent than the reference compound ASA (TxA₂ synthesis in whole blood) [1]: 247 times
times more potent than the reference compound Dazoxiben (TxA₂ synthesis in whole blood) [1]: 7 times
IC50 ([2]; RRM rats isolated glomeruli, incubation 1 h at 37°C, read-out: In vitro effect on TxB₂ synthesis in RRM rats glomeruli, IC₅₀): 36 nM
times more potent than ASA on glomerular TxB₂ synthesis ([2]; glomeruli, ratio to ASA): ~4,000 times
times more potent than Dazoxiben on glomerular TxB₂ synthesis ([2]; glomeruli, ratio to Dazoxiben): 4.7 times
ED50 [3]: 2.3 mg/kg
changes in heart rate [4]: No changes
time until blood pressure returned toward normal levels ([4]; after treatment): 3 h
peak effect on blood pressure (MBP) ([4]; peak reached at 30 minutes postdrug): -30 ± 4 mm Hg
LD50 at 168 h [5]: > 800 mg/kg

CCOC(=O)C1=C(C)NC(C)=C(C(=O)OCC)C1c1cccc(-c2cccnc2)c1 [FCE 26055, 1,4-dihydro-2,6-dimethyl-4-[3-(3-pyridyl)phenyl]-3,5-pyridinedicarboxylic acid, diethyl ester]
IC50 [1, 6]: 450 nM
times more potent than the reference compound ASA (TxA₂ synthesis in whole blood) [1]: 90 times
times more potent than the reference compound Dazoxiben (TxA₂ synthesis in whole blood) [1]: 3 times
